Assay results as given in ChEMBL document CHEMBL4680266, “Iodoquinazolinones bearing benzenesulfonamide as human carbonic anhydrase I, II, IX and XII inhibitors: Synthesis, biological evaluation and radiosensitizing activity” (Eur J Med Chem, 2020).

What was measured:
Carbonic anhydrase 9 = Carbonic anhydrase 9 (Homo sapiens, UniProt Q16790); assay: Inhibition of recombinant human carbonic anhydrase 9 incubated for 15 mins prior to testing measured for 10 to 100 secs by phenol red-based stopped-flow CO2 hydration assay
HCT-116 [1] = assay: Cytotoxicity against human HCT-116 cells assessed as reduction in cell viability irradiated with 8 Gy gamma radiation and measured after 24 hrs by MTT assay; format: functional, cell-based; conditions: HCT-116, light or radiation study
HepG2 [2] = assay: Cytotoxicity against human HepG2 cells assessed as reduction in cell viability by MTT assay; format: functional, cell-based
WI-38 [3] = assay: Cytotoxicity against human WI-38 cells assessed as reduction in cell viability irradiated with 8 Gy gamma radiation and measured after 24 hrs by MTT assay; format: cell-based; conditions: WI-38, light or radiation study
HCT-116 [4] = assay: Cytotoxicity against human HCT-116 cells assessed as reduction in cell viability by MTT assay; format: functional, cell-based
MCF7 [5] = assay: Cytotoxicity against human MCF7 cells assessed as reduction in cell viability by MTT assay; format: functional, cell-based
MCF7 [6] = assay: Cytotoxicity against human MCF7 cells assessed as reduction in cell viability irradiated with 8 Gy gamma radiation and measured after 24 hrs by MTT assay; format: functional, cell-based; conditions: MCF7, light or radiation study
HepG2 [7] = assay: Cytotoxicity against human HepG2 cells assessed as reduction in cell viability irradiated with 8 Gy gamma radiation and measured after 24 hrs by MTT assay; format: functional, cell-based; conditions: HepG2, light or radiation study
WI-38 [8] = assay: Cytotoxicity against human WI-38 cells assessed as reduction in cell viability by MTT assay; format: cell-based

Q: For CCc1cccc(NC(=O)CSc2nc3ccc(I)cc3c(=O)n2-c2ccc(S(N)(=O)=O)cc2)c1, which Ki (Carbonic anhydrase 9) is on record?
A: 0.0552 µM

Q: For COc1cc(NC(=O)CSc2nc3ccc(I)cc3c(=O)n2-c2ccc(S(N)(=O)=O)cc2)cc(OC)c1, which Ki (Carbonic anhydrase 9) is on record?
A: 0.0291 µM

Q: How did the Ki (Carbonic anhydrase 9) turn out when COc1cc(NC(=O)CSc2nc3ccc(I)cc3c(=O)n2-c2ccc(S(N)(=O)=O)cc2)cc(OC)c1OC was run?
A: 0.0304 µM

Q: Which Ki (Carbonic anhydrase 9) does the source give for Cc1cc([N+](=O)[O-])ccc1NC(=O)CSc1nc2ccc(I)cc2c(=O)n1-c1ccc(S(N)(=O)=O)cc1 here?
A: 0.0591 µM

Q: With Cc1ccccc1NC(=O)CSc1nc2ccc(I)cc2c(=O)n1-c1ccc(S(N)(=O)=O)cc1 as the molecule, how does the Ki (Carbonic anhydrase 9) read?
A: 0.429 µM

Q: CCOc1ccc(NC(=O)CSc2nc3ccc(I)cc3c(=O)n2-c2ccc(S(N)(=O)=O)cc2)cc1 was tested. Which Ki (Carbonic anhydrase 9) did it give?
A: 0.0345 µM

Q: With Cc1cccc([N+](=O)[O-])c1NC(=O)CSc1nc2ccc(I)cc2c(=O)n1-c1ccc(S(N)(=O)=O)cc1 as the molecule, how does the Ki (Carbonic anhydrase 9) read?
A: 0.0903 µM

Q: How did the Ki (Carbonic anhydrase 9) turn out when CCc1ccc(NC(=O)CSc2nc3ccc(I)cc3c(=O)n2-c2ccc(S(N)(=O)=O)cc2)cc1 was run?
A: 0.0673 µM

Q: With NS(=O)(=O)c1ccc(-n2c(SCC(=O)Nc3ccccc3)nc3ccc(I)cc3c2=O)cc1 as the molecule, how does the Ki (Carbonic anhydrase 9) read?
A: 0.337 µM

Q: What does the source list for CCc1ccccc1NC(=O)CSc1nc2ccc(I)cc2c(=O)n1-c1ccc(S(N)(=O)=O)cc1?
A: IC50 (HCT-116 [1]): 0.019 µM; Ki (Carbonic anhydrase 9): 0.0291 µM; IC50 (HepG2 [2]): 1.78 µM; IC50 (WI-38 [3]): 3.15 µM; IC50 (HCT-116 [4]): 1.94 µM; IC50 (MCF7 [5]): 3.07 µM; IC50 (MCF7 [6]): 0.031 µM; IC50 (HepG2 [7]): 0.041 µM; IC50 (WI-38 [8]): 5.71 µM

Q: With NS(=O)(=O)c1ccc(-n2c(S)nc3ccc(I)cc3c2=O)cc1 as the molecule, how does the Ki (Carbonic anhydrase 9) read?
A: 2.23 µM

Q: Which Ki (Carbonic anhydrase 9) does the source give for Cc1cccc(NC(=O)CSc2nc3ccc(I)cc3c(=O)n2-c2ccc(S(N)(=O)=O)cc2)c1 here?
A: 0.244 µM

Q: For COc1ccc(NC(=O)CSc2nc3ccc(I)cc3c(=O)n2-c2ccc(S(N)(=O)=O)cc2)cc1, which Ki (Carbonic anhydrase 9) is on record?
A: 0.0732 µM

Q: How did the Ki (Carbonic anhydrase 9) turn out when Cc1ccc(NC(=O)CSc2nc3ccc(I)cc3c(=O)n2-c2ccc(S(N)(=O)=O)cc2)cc1 was run?
A: 0.0917 µM

Q: How did the Ki (Carbonic anhydrase 9) turn out when NS(=O)(=O)c1ccc(-n2c(SCC(=O)Nc3ccc([N+](=O)[O-])cc3[N+](=O)[O-])nc3ccc(I)cc3c2=O)cc1 was run?
A: 0.0469 µM
